# Measured values taken from publication PMC8301423, “The Effects of Temperature and Pressure on Protein-Ligand Binding in the Presence of Mars-Relevant Salts” (Biology, 2021).
# Target: T1, bovine serum albumin (BSA) (Bos taurus, UniProt P02769)
# T1 construct: BSA, molecular weight of 66 kDa, 583 residues; purchased Sigma Aldrich Chemicals (Taufkirchen, Germany)
# Assay: Job's plot (method of continuous variation) by steady-state fluorescence for binding stoichiometry
# Conditions: 1 bar
# Procedure: First, we explored the impact of 250 mM MgCl2, Mg(ClO4)2, and MgSO4 on the ligand binding process at 25 °C and ambient pressure (1 bar). To be able to determine the binding constant, it is of fundamental importance to exactly know the stoichiometry of the complex formed. In this way, a proper binding model can be applied in the data analysis of the measured binding isotherms, providing the most appropriate value of the binding constant, Kb. We applied the method of continuous variation (or Job’s plot) for the estimation of the binding stoichiometry by means of steady-state fluorescence spectroscopy. A series of solutions were prepared such that the total concentration (i.e., [ANS] + [BSA]) is constant, while the mole fractions of the interacting partners were varied. Discontinuities in the plot of fluorescence intensity vs. xANS (where xANS is the mole fraction of ANS) are indicative of the stoichiometry of the complex formed.
# [1] = 250 mM Mg(ClO4)2, 25 °C, [ANS]+[BSA] 35 µM
# T1 sequence (P02769 25-607): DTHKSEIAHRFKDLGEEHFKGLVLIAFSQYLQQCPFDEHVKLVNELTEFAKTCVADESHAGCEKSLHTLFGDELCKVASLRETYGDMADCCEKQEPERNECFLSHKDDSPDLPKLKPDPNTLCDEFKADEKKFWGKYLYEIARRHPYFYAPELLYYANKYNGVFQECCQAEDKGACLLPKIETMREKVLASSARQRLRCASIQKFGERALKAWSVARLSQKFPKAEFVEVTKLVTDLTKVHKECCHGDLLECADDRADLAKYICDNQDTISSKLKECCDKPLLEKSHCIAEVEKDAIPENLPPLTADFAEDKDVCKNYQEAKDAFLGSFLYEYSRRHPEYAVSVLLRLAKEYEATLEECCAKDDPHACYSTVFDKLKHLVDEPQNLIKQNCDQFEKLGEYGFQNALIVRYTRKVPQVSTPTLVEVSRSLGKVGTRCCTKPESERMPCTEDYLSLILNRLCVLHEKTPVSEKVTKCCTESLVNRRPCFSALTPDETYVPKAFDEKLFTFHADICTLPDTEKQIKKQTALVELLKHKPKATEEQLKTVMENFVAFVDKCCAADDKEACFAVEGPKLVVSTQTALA
structure (smiles),measurement,setting,value
"O=S(=O)(O)c1cccc2cccc(Nc3ccccc3)c12 [ANS, 8-anilinonaphthalene-1-sulfonic acid]",ANS molecules bound to one BSA molecule,"250 mM Mg(ClO4)2, 25 °C",two
same,Job's plot first inflection point xANS,[1],0.5
same,Job's plot second inflection point xANS,[1],≈ 0.65
same,Job's plot inflection point xANS (mole fraction of ANS),"250 mM MgCl2, 25 °C, [ANS]+[BSA] 35 µM",≈ 0.75
same,ANS molecules bound to one BSA molecule,"250 mM MgSO4, 25 °C",three
same,Job's plot inflection point xANS (mole fraction of ANS),"250 mM MgSO4, 25 °C, [ANS]+[BSA] 35 µM",≈ 0.75
